Test results: patent US20100093536A1, “CONTROL OF GRASSY WEEDS WITH VINYLGLYCINES AND VINYLGLYCINE-PRODUCING ORGANISMS” (THE STATE OF OREGON ACTING BY AND THROUGH THE STATE BOARD …, priority 2008, published 2010)
“Also recorded” adds a separate entry of the source.

Columns and labels:
Poa annua seeds [1] = assay: Soil-based test for GAF activity, Poa annua only; assay type: in vivo; settings: sprayed twice with 50 mL in 0.1% Tween 20, evaluated 12 days after first treatment
Description: (§1) Soil-based tests for GAF activity were performed as follows: Woodburn sandy loam obtained from a Willamette Valley site was used in all soil-based experiments. The soil was dried for two days at 100° F. and screened through a ⅛-inch mesh prior to use. All flats were lined with black ground cloth. Small half-flats (25×25 cm) were filled with 1200 grams of soil. Larger flats (25×50 cm) were filled with 2500 grams of soil. The soil in the flats was fully saturated with water and left to drain in a greenhouse mist chamber for two days prior to seeding.
Soil-based tests involving only Poa annua (annual bluegrass) were conducted in half-flats. A frame covering ½- inch around the margins of the flat was placed on the soil surface, and the soil area within the frame was seeded with 0.3 grams of Poa annua seeds (leaving a ½-inch unseeded border). The seeds were sprayed lightly with distilled water and placed in a growth chamber set at 20° C. with a photoperiod consisting of 8-hour days (50 μEinsteins) and 16-hour nights. […] The treatments were evaluated and photographic records taken 12 days after the initial treatment (14 days from seeding). […]
The effect of AVG on germination of seeds of Poa annua also was determined in a soil-based system using the protocol previously described. […]
The effect of AOA on the germination of Poa annua also was determined in a soil-based system. […]

Poa annua seeds [2] = assay: Soil-based test with established perennial ryegrass seedlings: germination of Poa annua seeds; assay type: in vivo; settings: sprayed twice with 50 mL in 0.1% Tween 20, evaluated 12 days after first treatment
Description: as §1
(§2) Soil-based tests involving both Poa annua seeds and established perennial ryegrass (Lolium perenne) seedlings were conducted in full sized flats (25×50 cm). After preparation of the soil as described above, five rows of perennial ryegrass seed (0.19 grams seed/row) were planted parallel to the short axis of the flat. The flats were placed in a mist chamber in the greenhouse for one week, and then transferred to a greenhouse bench where they were watered once or twice daily (as needed) with a fogging nozzle for the next 13 days. The ryegrass seedlings were fertilized at the end of the first week on the greenhouse bench. […] The treatments were evaluated and photographic records taken 12 days after the initial treatment (14 days from seeding with Poa annua). […]

[3] = tested on: established perennial ryegrass (Lolium perenne) seedlings; assay: Soil-based test with established perennial ryegrass seedlings: tolerance of the ryegrass; assay type: in vivo; settings: at a concentration that arrested germination of Poa annua seeds
Description: as §1, §2

[4] = tested on: Poa annua (annual bluegrass) seeds; assay: Standard GAF Bioassay System (Standard Poa Bioassay), seed germination scored after 7 days; assay type: in vivo; set-up: key to GERMINATION SCORE IN THE POA BIOASSAY (±Standard Error of the Mean) / GERMINATION SCORE (±Standard Error of the Mean): germination score, 0 = no germination to 4.0 = first true leaf emerged; settings: for GAF-like activity in the Standard Poa Bioassay System, in words: pure compounds; for GERMINATION SCORE: purified GAF
Description: The seed of Poa annua (or other test seeds) were surface-sterilized by placing two to five grams of seeds in a 50 ml glass beaker, covering the seeds with a 50% (v/v) solution of H2SO4, and stirring vigorously for 5 minutes. The seed/acid mixture was filtered through a Gooch crucible and repeatedly rinsed with tap water to remove residual acid. The seeds were then placed in a beaker and covered with bleach (Clorox®, NaOCl, 5.25%) containing 1% (v/v) polyoxethylene sorbitan monolaurate (Tween®-20). The seeds were stirred for 5 minutes and then repeatedly rinsed with sterile deionized water and placed in a sterile Petri dish. The seeds were used immediately while wet or dried (spread in a thin layer and allowed to dry under a laminar flow hood with the Petri dish lid ajar for 4 to 8 hours) to prevent premature germination.
Bioassays for GAF activity were performed with Poa annua (annual bluegrass) seeds unless otherwise indicated. For each concentration of each test solution, 200 μl aliquots of solution were distributed to each of three wells of a sterile Costar® forty-eight well tissue culture plate (Corning® Costar® Number 3548). Three surface-sterilized Poa annua seeds were aseptically transferred to each well and submerged in the liquid, providing a total of nine observations for each concentration of each solution tested. The lid of the tissue culture plate was sealed with Parafilm® and the plate was placed in a germinator at 20° C. (8 hour day length at a light intensity of 50 μmol/m^2/s, 16 hour dark period) for seven days. Germination was scored on the basis of the following four-point system: • Score 0: No visible signs of germination. • Score 0.5: Seed coat split but plumule and coleorhiza are not visible. • Score 1.0: Plumule and coleorhiza visible. Plumule chlorotic and shorter than length of seed. Root not yet visible. • Score 1.5: Plumule still shorter than length of seed, but root is clearly visible. • Score 2.0: Plumule approximately equal in length to the seed. Root elongated. • Score 2.5: Plumule obviously longer than length of seed. First true leaf still enclosed in coleoptile. • Score 3.0: First true leaf emerged from coleoptile and green. Emerged portion of the leaf is obviously shorter than the coleoptile. • Score 3.5: First true leaf emerged from coleoptile and green. Emerged portion of the leaf is approximately equal in length to the coleoptile. • Score 4.0: First true leaf emerged from coleoptile and green. Emerged portion of the leaf is obviously longer than the coleoptile.

[5] = tested on: seeds of cereals (wheat and barley) and dicots; assay: Germination of seeds of cereals and dicots in presence of GAF; assay type: in vivo; settings: compared with seeds of grass species
[6] = Solubility of GAF in organic solvents; assay type: physicochemical
Description: Further characterization of GAF described its size and solubility, as well as the stability of its activity over time and under varying temperature and pH conditions (see Banowetz et al., Biological Control, 50: 103-110, 2009; which is hereby incorporated by reference). […] GAF activity in culture filtrates stored at 4° C. diminishes over time, with 10% activity remaining after 17 months.
We have termed this compound a Germination Arrest Factor (GAF), and we have identified this compound as 2-amino-4-formylaminooxy-but-3-enoic acid (also called 2-amino-4-formylaminooxyvinylglycine). The presence of this compound in culture filtrates of Pseudomonas can be assessed by extraction and chromatography procedures described in Example 1. […] Moreover, GAF has particular chromatographic properties that allow it to be detected in the culture filtrates of GAF-producing organisms as a distinctive ninhydrin-staining band located at a particular position on thin-layer chromatography plates when the extraction and chromatography protocols specified here are followed. […] The presence of a DNA sequence that codes for an open reading frame that is distinctive for a particular putative formyl-transferase.

Established seedlings = assay: Sensitivity of established seedlings to GAF; settings: in vivo
[7] = cited from earlier work
[8] = tested on: seeds of grassy weeds and cultivated grasses; assay: Germination arrest / herbicidal activity against grassy weeds (general statements); settings: in vivo
[9] = exposure limited to a few hours

| Compound | effect on germination of seeds of Poa annua in a soil-based system (Poa annua seeds [1]) | germination of Poa annua seeds seeded between rows of established ryegrass (Poa annua seeds [2]) | effect on established perennial ryegrass seedlings [3] | GERMINATION SCORE IN THE POA BIOASSAY (±Standard Error of the Mean) ([4]; concentration tested 0.03 mM) | GERMINATION SCORE IN THE POA BIOASSAY (±Standard Error of the Mean) ([4]; concentration tested 0.1 mM) | GERMINATION SCORE IN THE POA BIOASSAY (±Standard Error of the Mean) ([4]; concentration tested 0.3 mM) | GERMINATION SCORE IN THE POA BIOASSAY (±Standard Error of the Mean) ([4]; concentration tested 1.0 mM) | GERMINATION SCORE IN THE POA BIOASSAY (±Standard Error of the Mean) ([4]; concentration tested 3.0 mM) | GERMINATION SCORE IN THE POA BIOASSAY (±Standard Error of the Mean) ([4]; concentration tested 10.0 mM) | GERMINATION SCORE IN THE POA BIOASSAY (±Standard Error of the Mean) ([4]; concentration tested 30.0 mM) | GAF-like activity in the Standard Poa Bioassay System, in words [4] | further results |
| --- | --- | --- | --- | --- | --- | --- | --- | --- | --- | --- | --- | --- |
| NOCC(=O)O [AOA, 2-Aminooxyacetic acid, reference compound] | arrested germination | arrested as expected | some damage was evident | 2.5 ± 0.1 | 1.7 ± 0.1 | 1.2 ± 0.1 | 1.0 ± 0.0 | 1.0 ± 0.0 | 1.0 ± 0.0 | 0.9 ± 0.1 | arrested the germination |  |
| NCCOC=CC(N)C(=O)O (stereo not drawn) [AVG, 2-amino-4-aminoethoxy-but-3-enoic acid, reference compound] | arrest germination | completely arrested germination | little if any effect | 2.3 ± 0.1 | 1.3 ± 0.1 | 1.0 ± 0.0 | 1.0 ± 0.0 | 1.0 ± 0.0 | 1.0 ± 0.0 | 0.9 ± 0.1 | arrested the germination |  |
| NC(/C=C/ONC=O)C(=O)O (stereo not drawn) [GAF, 2-amino-4-formylaminooxy-but-3-enoic acid] |  |  |  |  |  |  |  |  |  |  |  | germination of seeds of cereals (wheat and barley) and dicots [5]: much less sensitive to GAF; solubility in organic solvents [6]: insoluble or sparingly soluble in organic solvents; also recorded: insoluble in organic solvents that are immiscible in water; sensitivity of established seedlings to GAF (Established seedlings): little if any sensitivity; GAF activity remaining ([7]; culture filtrates stored at 4° C., after 17 months): 10%; activity under basic as well as acidic conditions [7, 9]: remains active; temperature at which GAF remains active [7, 9]: up to 65 °C; activity against grassy weeds, in words [8]: irreversibly arrests the germination; POA BIOASSAY SCORES (±Standard Error of the Mean) ([4]; GAF Conc. 2X (relative to culture filtrate), partially purified GAF, metal 0 μM): 1.00 ± 0.00; activity of GAF in arresting germination in the presence of copper ions ([4]; appropriate concentrations of copper ions): greatly reduced; GERMINATION SCORE ([4]; pooled Sephadex G15 fractions, Undiluted Pooled Volume (100%)): 1.00; GERMINATION SCORE ([4]; 1.25% Pooled Volume Concentration): 1.92; GERMINATION SCORE ([4]; 2.5% Pooled Volume Concentration): 1.00; GERMINATION SCORE ([4]; 5% Pooled Volume Concentration): 1.00; GERMINATION SCORE ([4]; 10% Pooled Volume Concentration): 1.00 |
